Measurements: patent US7820825B2, “N-substituted-azacyclylamines as histamine-3 antagonists” (Wyeth LLC, priority 2006, dated 2010)

Row | melting point | Structure (SMILES)
1 | 101 to 105 °C | CN(C)[C@H]1CCN(C(=O)c2ccc(Cc3cn(C)c4ccccc34)cc2)C1 [Example 230, (3S)-N,N-dimethyl-1-{4-[(1-methyl-1H-indol-3-yl)methyl]benzoyl}pyrrolidin-3-amine]
2 | 73 to 78 °C | Cn1cc(Cc2ccc(C(=O)N3CC[C@H](N4CCCC4)C3)cc2)c2ccccc21 [Example 229, (3′S)-1-{4-[(1-methyl-1H-indol-3-yl)methyl]benzoyl}-1,3′-bipyrrolidine]
